Several values for one entry are separate records, joined by “and”; a condition that tells them apart may be missing. Equal entries are not always repeated. Inconclusive results and toxic doses are left out. The calls were made as follows: active = survival T/C of 150% or more; inactive = T/C below 125% in these data.
Tested on: CD2F1 mice, L1210 leukemia ip, survival T/C
Assay: NCI In Vivo Anticancer Drug Screen. Data for tumor model L1210 Leukemia (intraperitoneal) in CD2F1 (CDF1) mice
Details: endpoint: mean survival time, higher = longer survival
Summary of the method: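 Each value reflects a quotient of treated over vehicle control outcomes in mice with a transplanted tumor.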

[1] = dose: 100.0 mg/kg/injection, schedule: Q04DX002 (ip), vehicle: saline with Tween-80
[2] = dose: 200.0 mg/kg/injection, schedule: Q04DX002 (ip), vehicle: saline with Tween-80
[3] = dose: 100.0 mg/kg/injection, schedule: Q01DX009 (ip), vehicle: saline with Tween-80
[4] = dose: 200.0 mg/kg/injection, schedule: Q01DX009 (ip), vehicle: saline with Tween-80
[5] = dose: 400.0 mg/kg/injection, schedule: Q01DX009 (ip), vehicle: saline with Tween-80
[6] = dose: 100.0 mg/kg/injection, schedule: Q04DX003 (ip), vehicle: saline with Tween-80
[7] = dose: 200.0 mg/kg/injection, schedule: Q04DX003 (ip), vehicle: saline with Tween-80
[8] = dose: 400.0 mg/kg/injection, schedule: Q04DX003 (ip), vehicle: saline with Tween-80
[9] = dose: 100.0 mg/kg/injection, schedule: Q01DX001 (ip), vehicle: saline
[10] = dose: 200.0 mg/kg/injection, schedule: Q01DX001 (ip), vehicle: saline
[11] = dose: 100.0 mg/kg/injection, schedule: Q04DX003 (ip), vehicle: saline

Measured: T/C

CCCc1cc(C(C)=O)c[n+](C2OC(COC(=O)c3ccccc3)C(OC(=O)c3ccccc3)C2O)c1 (configuration not stated)
inactive: dose: 3.13 mg/kg/injection, schedule: Q01DX005 (ip), vehicle: distilled water + Tween-80 109 % of control | dose: 6.25 mg/kg/injection, schedule: Q01DX005 (ip), vehicle: distilled water + Tween-80 92 % of control | dose: 12.5 mg/kg/injection, schedule: Q01DX005 (ip), vehicle: distilled water + Tween-80 93 % of control | dose: 25.0 mg/kg/injection, schedule: Q01DX005 (ip), vehicle: distilled water + Tween-80 89 % of control | dose: 50.0 mg/kg/injection, schedule: Q01DX005 (ip), vehicle: distilled water + Tween-80 90 % of control and 97 % of control

COc1ccc(C(=O)C(C)(C)C)cc1
inactive: [1] 108 % of control | [2] 97 % of control

O=[N+]([O-])c1cccc(/C=N\[n+]2ccccc2)c1
inactive: dose: 50.0 mg/kg/injection, schedule: Q04DX002 (ip), vehicle: saline with Tween-80 97 % of control | [1] 100 % of control | [2] 100 % of control

CCC(Cl)[N+](=O)[O-] (configuration not stated)
inactive: dose: 50.0 mg/kg/injection, schedule: Q04DX003 (ip), vehicle: Klucel (hydroxypropylcellulose) (HPC) 97 % of control | dose: 100.0 mg/kg/injection, schedule: Q04DX003 (ip), vehicle: Klucel (hydroxypropylcellulose) (HPC) 107 % of control | dose: 200.0 mg/kg/injection, schedule: Q04DX003 (ip), vehicle: Klucel (hydroxypropylcellulose) (HPC) 101 % of control

O=C(Nc1ccc(Cl)c(C(F)(F)F)c1)Nc1cc(Cl)ccc1Sc1cc(Cl)c(Cl)cc1S(=O)(=O)O
inactive: dose: 100.0 mg/kg/injection, schedule: Q01DX001 (ip), vehicle: saline sonified 102 % of control | [3] 100 % of control | dose: 200.0 mg/kg/injection, schedule: Q01DX001 (ip), vehicle: saline sonified 93 % of control | [4] 105 % of control | dose: 400.0 mg/kg/injection, schedule: Q01DX001 (ip), vehicle: saline sonified 93 % of control | [5] 102 % of control

Nc1c([N+](=O)[O-])ccc2ccccc12
inactive: [3] 95 % of control | [6] 93 % of control | [4] 93 % of control | [7] 93 % of control | [5] 92 % of control | [8] 92 % of control

O=C(CF)[O][Sb]([O]C(=O)CF)([c]1ccccc1)([c]1ccccc1)[c]1ccccc1
inactive: dose: 5.0 mg/kg/injection, schedule: Q01DX009 (ip), vehicle: saline with Tween-80 105 % of control | dose: 10.0 mg/kg/injection, schedule: Q01DX009 (ip), vehicle: saline with Tween-80 108 % of control

O=C(Nc1ccc([N+](=O)[O-])cc1)OC1CCS(=O)(=O)C1 (configuration not stated)
inactive: dose: 75.0 mg/kg/injection, schedule: Q04DX003 (ip), vehicle: saline 102 % of control | dose: 150.0 mg/kg/injection, schedule: Q04DX003 (ip), vehicle: saline 98 % of control | dose: 300.0 mg/kg/injection, schedule: Q04DX003 (ip), vehicle: saline 101 % of control

CC12CCCC=C1N(C=O)c1ccccc12 (configuration not stated)
inactive: [9] 95 % of control | [10] 100 % of control | dose: 400.0 mg/kg/injection, schedule: Q01DX001 (ip), vehicle: saline 95 % of control

CC(N)C(=O)NC(CO)C(=O)O (configuration not stated)
inactive: dose: 100.0 mg/kg/injection, schedule: Q01DX009 (ip), vehicle: saline 103 % of control | [11] 97 % of control | dose: 200.0 mg/kg/injection, schedule: Q01DX009 (ip), vehicle: saline 95 % of control | dose: 200.0 mg/kg/injection, schedule: Q04DX003 (ip), vehicle: saline 93 % of control | dose: 400.0 mg/kg/injection, schedule: Q01DX009 (ip), vehicle: saline 97 % of control | dose: 400.0 mg/kg/injection, schedule: Q04DX003 (ip), vehicle: saline 93 % of control

CCC(C(=O)O)c1ccc(-c2ccccc2)cc1 (configuration not stated)
inactive: dose: 100.0 mg/kg/injection, schedule: Q01DX001 (ip), vehicle: saline with Tween-80 91 % of control | dose: 200.0 mg/kg/injection, schedule: Q01DX001 (ip), vehicle: saline with Tween-80 93 % of control | dose: 400.0 mg/kg/injection, schedule: Q01DX001 (ip), vehicle: saline with Tween-80 92 % of control

CSc1ccc(C)cn1 (tested in a mixture with another compound)
inactive: [3] 100 % of control | [4] 97 % of control

COc1cc(C2c3cc4c(cc3C(O)C(CO)C2CO)OCO4)cc(OC)c1OC (configuration not stated)
inactive: dose: 12.5 mg/kg/injection, schedule: Q01DX009 (ip), vehicle: saline with Tween-80 97 % of control | dose: 25.0 mg/kg/injection, schedule: Q01DX009 (ip), vehicle: saline with Tween-80 97 % of control | dose: 50.0 mg/kg/injection, schedule: Q01DX009 (ip), vehicle: saline with Tween-80 102 % of control | [3] 106 % of control | dose: 100.0 mg/kg/injection, schedule: Q04DX003 (ip), vehicle: saline sonified 107 % of control | dose: 150.0 mg/kg/injection, schedule: Q04DX003 (ip), vehicle: saline sonified 114 % of control | dose: 225.0 mg/kg/injection, schedule: Q04DX003 (ip), vehicle: saline sonified 108 % of control | [5] 122 % of control

C=C1C(=O)OCC1C(=O)O (configuration not stated)
inactive: dose: 4.0 mg/kg/injection, schedule: Q01DX009 (ip), vehicle: saline 97 % of control and 106 % of control | dose: 8.0 mg/kg/injection, schedule: Q01DX009 (ip), vehicle: saline 96 % of control and 101 % of control | dose: 16.0 mg/kg/injection, schedule: Q01DX009 (ip), vehicle: saline 101 % of control and 110 % of control | dose: 32.0 mg/kg/injection, schedule: Q01DX009 (ip), vehicle: saline 104 % of control and 110 % of control | dose: 64.0 mg/kg/injection, schedule: Q01DX009 (ip), vehicle: saline 88 % of control

COc1ccc(/C=C/c2ccc3ccccc3n2)c(OC)c1
inactive: [3] 96 % of control | [6] 96 % of control | [4] 102 % of control | [7] 96 % of control | [5] 95 % of control | [8] 96 % of control

CS(C)=O.CS(C)=O.[Cl][Rh]([Cl])([Cl])[Cl]
inactive: dose: 12.5 mg/kg/injection, schedule: Q01DX009 (ip), vehicle: saline 111 % of control | dose: 12.5 mg/kg/injection, schedule: Q04DX003 (ip), vehicle: saline 100 % of control | dose: 25.0 mg/kg/injection, schedule: Q01DX009 (ip), vehicle: saline 117 % of control | dose: 25.0 mg/kg/injection, schedule: Q04DX003 (ip), vehicle: saline 98 % of control | dose: 50.0 mg/kg/injection, schedule: Q01DX009 (ip), vehicle: saline 119 % of control | dose: 50.0 mg/kg/injection, schedule: Q04DX003 (ip), vehicle: saline 100 % of control | [11] 117 % of control

O=C(O)/C(=C(/c1ccccc1)c1ccc(Cl)cc1)c1ccccc1
inactive: [6] 98 % of control | [7] 96 % of control | [8] 98 % of control

Cc1ccc(CNc2cccnc2)cc1
inactive: [6] 98 % of control | [7] 93 % of control | [8] 95 % of control

Clc1ccc(N=Cc2ccccc2Cl)cc1
inactive: [6] 107 % of control | [7] 113 % of control | [8] 100 % of control

O=C(O)c1cc(-c2ccc(Cl)cc2)nc2c1ccc1ccccc12
inactive: [9] 102 % of control | [10] 97 % of control

OCCN1CCN(CCCN2c3ccccc3Sc3ccc(C(F)(F)F)cc32)CC1
inactive: dose: 1.49 mg/kg/injection, schedule: Q01DX009 (ip), vehicle: saline 110 % of control | dose: 2.27 mg/kg/injection, schedule: Q01DX009 (ip), vehicle: saline 113 % of control | dose: 3.4 mg/kg/injection, schedule: Q01DX009 (ip), vehicle: saline 121 % of control | dose: 5.0 mg/kg/injection, schedule: Q04DX003 (ip), vehicle: saline 116 % of control | dose: 6.6 mg/kg/injection, schedule: Q04DX003 (ip), vehicle: saline sonified 100 % of control | dose: 6.6 mg/kg/injection, schedule: Q04DX003 (ip), vehicle: saline 108 % of control | dose: 10.0 mg/kg/injection, schedule: Q04DX003 (ip), vehicle: saline sonified 101 % of control | dose: 10.0 mg/kg/injection, schedule: Q04DX003 (ip), vehicle: saline 116 % of control | dose: 15.0 mg/kg/injection, schedule: Q04DX003 (ip), vehicle: saline 114 % of control and 94 % of control | dose: 20.0 mg/kg/injection, schedule: Q04DX003 (ip), vehicle: saline 106 % of control | dose: 30.0 mg/kg/injection, schedule: Q04DX003 (ip), vehicle: saline 75 % of control
